Measurements reported in patent publication US20240270741A1 (Cogent Biosciences, Inc., priority 2023, published 2024).

These molecules were tested against FGFR2 (Homo sapiens, UniProt P21802) (assay: FGFR wild type enzyme assay (HTRF KinEASE-TK), FGFR2). Conditions: Enz FGFR2 (nM), FGFR2 wild type enzyme.
FGFR2, sequence (P21802 399-821 limits assumed): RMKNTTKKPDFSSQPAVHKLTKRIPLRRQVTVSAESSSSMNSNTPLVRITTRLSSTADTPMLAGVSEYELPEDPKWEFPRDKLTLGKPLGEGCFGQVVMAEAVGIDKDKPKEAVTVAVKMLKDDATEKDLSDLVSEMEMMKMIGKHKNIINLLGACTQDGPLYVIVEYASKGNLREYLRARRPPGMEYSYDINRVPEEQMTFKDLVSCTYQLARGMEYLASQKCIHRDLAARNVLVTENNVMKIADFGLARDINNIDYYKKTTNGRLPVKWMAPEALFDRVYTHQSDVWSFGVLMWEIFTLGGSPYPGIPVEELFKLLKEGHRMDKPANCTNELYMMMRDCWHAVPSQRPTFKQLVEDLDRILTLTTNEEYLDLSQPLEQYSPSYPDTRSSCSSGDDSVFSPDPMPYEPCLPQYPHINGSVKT
`Cc1c(-c2cc(Sc3ccc(F)cc3C#N)c3c(C#N)cnn3c2)cnn1[C@@H]1C[C@H]2CC[C@@H](C1)N2C` [Example 289, 4-((2-cyano-4-fluorophenyl)thio)-6-(5-methyl-1-((1R,3s,5S)-8-methyl-8-azabicyclo[3.2.1]octan-3-yl)-1H-pyrazol-4-yl)pyrazolo[1,5-a]pyridine-3-carbonitrile] showed an IC50 of 0.5 nM.
`Cc1c(-c2cc(Sc3ccc(F)cn3)c3c(C#N)cnn3c2)cnn1[C@H]1CC[C@@H](O)CC1` [Example 290, 4-((5-fluoropyridin-2-yl)thio)-6-(1-((1s,4s)-4-hydroxycyclohexyl)-5-methyl-1H-pyrazol-4-yl)pyrazolo[1,5-a]pyridine-3-carbonitrile] was tested, and the IC50 was 5 nM.
In the case of `Cc1c(-c2cc(Sc3ccc(F)cn3)c3c(C#N)cnn3c2)cnn1[C@H]1CC[C@@](C)(N)CC1` [Example 291, 6-(1-((1s,4s)-4-amino-4-methylcyclohexyl)-5-methyl-1H-pyrazol-4-yl)-4-((5-fluoropyridin-2-yl)thio)pyrazolo[1,5-a]pyridine-3-carbonitrile], the IC50 is reported as 3 nM.
In the case of `CN[C@]1(C)CC[C@H](n2ncc(-c3cc(Sc4ccc(F)cn4)c4c(C#N)cnn4c3)c2C)CC1` [Example 292, 4-((5-fluoropyridin-2-yl)thio)-6-(5-methyl-1-((1s,4s)-4-methyl-4-(methylamino)cyclohexyl)-1H-pyrazol-4-yl)pyrazolo[1,5-a]pyridine-3-carbonitrile], the IC50 is reported as 3 nM.
In the case of `N#Cc1cnn2cc(-c3cnn([C@H]4CC[C@@H](O)CC4)c3)cc(Sc3ncccc3F)c12` [Example 293, 4-((3-fluoropyridin-2-yl)thio)-6-(1-((1s,4s)-4-hydroxycyclohexyl)-1H-pyrazol-4-yl)pyrazolo[1,5-a]pyridine-3-carbonitrile], the IC50 is reported as 1 nM.
For `N#Cc1ccccc1Sc1cc(-c2cnn([C@H]3CC[C@@H](O)CC3)c2)cn2ncc(C#N)c12` [Example 294, 4-((2-cyanophenyl)thio)-6-(1-((1s,4s)-4-hydroxycyclohexyl)-1H-pyrazol-4-yl)pyrazolo[1,5-a]pyridine-3-carbonitrile], the IC50 was 0.5 nM.
`CN[C@]1(C)CC[C@H](n2ncc(-c3cc(Sc4ncccc4F)c4c(C#N)cnn4c3)c2C)CC1` [Example 295, 4-((3-fluoropyridin-2-yl)thio)-6-(5-methyl-1-((1s,4s)-4-methyl-4-(methylamino)cylcohexyl)-1H-pyrazol-4-yl)pyrazolo[1,5-a]pyridine-3-carbonitrile] gave an IC50 of 1 nM.
Work on `Cc1c(-c2cc(Sc3ncccc3F)c3c(C#N)cnn3c2)cnn1[C@@H]1CC[C@H](O)[C@H](O)C1` [Example 296, 6-(1-((1R,3R,4S)-3,4-dihydroxycyclohexyl)-5-methyl-1H-pyrazol-4-yl)-4-((3-fluoropyridin-2-yl)thio)pyrazolo[1,5-a]pyridine-3-carbonitrile] yielded an IC50 of 2 nM.
`Cc1c(-c2cc(Sc3ccccc3C#N)c3c(C#N)cnn3c2)cnn1[C@H]1CC[C@@](C)(N)CC1` [Example 297, 6-[1-(4-amino-4-methyl-cyclohexyl)-5-methyl-pyrazol-4-yl]-4-(2-cyanophenyl) sulfanylpyrazolo[1,5-a]pyridine-3-carbonitrile] was tested, and the IC50 was 0.3 nM.
Work on `CN(C)[C@H]1CC[C@@H](n2cc(-c3cc(Sc4ccccc4C#N)c4c(C#N)cnn4c3)cn2)CC1` [Example 298, 4-((2-cyanophenyl)thio)-6-(1-((1s,4s)-4-(dimethylamino)cyclohex-yl)-1H-pyrazol-4-yl)pyrazolo[1,5-a]pyridine-3-carbonitrile] yielded an IC50 of 0.5 nM.
`CC(=O)N[C@H]1CC[C@@H](n2ncc(-c3cc(Sc4ccc(F)cc4C#N)c4c(C#N)cnn4c3)c2C)CC1` [Example 299, N-((1s,4S)-4-(4-(3-cyano-4-((2-cyano-4-fluorophenyl)thio)pyrazolo [1,5-a]pyridin-6-yl)-5-methyl-1H-pyrazol-1-yl)cyclohexyl)acetamide] was tested, and the IC50 was 1 nM.
